Test results as given in ChEMBL document CHEMBL4043153, “Lead selection of antiparasitic compounds from a focused library of benzenesulfonyl derivatives of heterocycles” (Bioorg Med Chem Lett, 2017).

What was measured:
Type in all cases: functional
Trypanosoma cruzi [1] = assay: Antiparasitic activity against Trypanosoma cruzi Tulahuen C4 intracellular amastigotes infected in rat L6 cells assessed as growth inhibition at 0.8 ug/ml after 96 hrs by CPRG/Nonidet reagent based photometric analysis relative to control; conditions: Tulahuen C4, L6, 96 h, read-out: GI
Trypanosoma cruzi [2] = assay: Antiparasitic activity against Trypanosoma cruzi Tulahuen C4 intracellular amastigotes infected in rat L6 cells assessed as growth inhibition at 4.8 ug/ml after 96 hrs by CPRG/Nonidet reagent based photometric analysis relative to control; conditions: Tulahuen C4, L6, 96 h, read-out: GI
Leishmania donovani [3] = assay: Antiparasitic activity against Leishmania donovani MHOM-ET-67/L82 axenic amastigotes assessed as growth inhibition at 0.8 ug/ml after 72 hrs by resazurin dye-based fluorometric analysis relative to control; conditions: MHOM-ET-67/L82, 72 h, read-out: GI
[4] = system: Trypanosoma brucei rhodesiense; assay: Antiparasitic activity against Trypanosoma brucei rhodesiense STIB 900 trypomastigote bloodstream form assessed as growth inhibition at 0.8 ug/ml after 72 hrs by resazurin dye-based fluorometric analysis relative to control; conditions: STIB 900, 72 h, read-out: GI
Leishmania donovani [5] = assay: Antiparasitic activity against Leishmania donovani MHOM-ET-67/L82 axenic amastigotes assessed as growth inhibition at 4.8 ug/ml after 72 hrs by resazurin dye-based fluorometric analysis relative to control; conditions: MHOM-ET-67/L82, 72 h, read-out: GI
Plasmodium falciparum [6] = assay: (§1) Antiparasitic activity against intraerythrocytic form of chloroquine/pyrimethamine-resistant Plasmodium falciparum K1 infected in human RBC assessed as growth inhibition at 0.8 ug/ml preincubated for 48 hrs followed by [3H]-hypoxanthine addition measured after 24 hrs by liquid scintillation counting analysis relative to control; conditions: read-out: GI
[7] = system: Trypanosoma brucei rhodesiense; assay: Antiparasitic activity against Trypanosoma brucei rhodesiense STIB 900 trypomastigote bloodstream form assessed as growth inhibition at 4.8 ug/ml after 72 hrs by resazurin dye-based fluorometric analysis relative to control; conditions: STIB 900, 72 h, read-out: GI
Plasmodium falciparum [8] = assay: as §1, with “4.8” for “0.8”; conditions: read-out: GI

SMILES	inhibition of growth at 0.8 µg/mL (Trypanosoma cruzi [1]) [%]	inhibition of growth at 4.8 µg/mL (Trypanosoma cruzi [2]) [%]	inhibition of growth at 0.8 µg/mL (Leishmania donovani [3]) [%]	inhibition of growth at 0.8 µg/mL [4] [%]	inhibition of growth at 4.8 µg/mL (Leishmania donovani [5]) [%]	inhibition of growth at 0.8 µg/mL (Plasmodium falciparum [6]) [%]	inhibition of growth at 4.8 µg/mL [7] [%]	inhibition of growth at 4.8 µg/mL (Plasmodium falciparum [8]) [%]
CC1Cc2ccccc2N1S(=O)(=O)c1ccc(C(F)(F)F)cc1 (stereo not given)	0	54.6	17.9	0	86.2	12.7	1.2	91.4
CC1Cc2ccccc2N1S(=O)(=O)c1cccc(C(F)(F)F)c1 (stereo not given)	0	5.7	13.5	0	77.6	15.1	0	77.1
CC(C)(C)c1ccc(S(=O)(=O)n2nnc3ccccc32)cc1	8.5	7.4	13.3	8.8	42.8	0	0	0
CC(=O)Nc1ccc(S(=O)(=O)N2c3ccccc3CC2C)cc1 (stereo not given)	0	46.7	6.4	0	14.7	4.2	1.7	15.6
O=[N+]([O-])c1cccc(S(=O)(=O)n2ccc3ccccc32)c1	0	40.5	11.7	1.9	59.3	8	3.9	68.8
CC1Cc2ccccc2N1S(=O)(=O)c1cccc([N+](=O)[O-])c1 (stereo not given)	2.5	31.6	26	7	66.2	14.9	12.6	62.6
O=S(=O)(c1ccc(Br)cc1)N1CCc2ccccc21	4.2	28.1	17.9	5.3	77.7	9.8	0	63.5
CC(C)(C)c1ccc(S(=O)(=O)n2ccc3ccccc32)cc1	0	0	27.3	0	92.2	13.9	0	92.3
Nc1nc(N)nc(Nc2ccc([As]3SCC(CO)S3)cc2)n1 (stereo not given) [MELARSOPROL]	–	–	–	44.4	–	–	98.3	–
O=S(=O)(c1ccc(C(F)(F)F)cc1)N1CCc2ccccc2C1	0	27.3	40.8	0.7	58.3	0.6	5.8	22.7
CC(C)(C)c1ccc(S(=O)(=O)N2CCc3ccccc32)cc1	5.2	54.1	49.4	1.9	100	29.5	5.8	99.1
Cc1ccc(S(=O)(=O)N2c3ccccc3CC2C)cc1 (stereo not given)	0	93.4	9.4	3.5	5.3	7.7	0	53.1
CC1Cc2ccccc2N1S(=O)(=O)c1ccc(F)cc1 (stereo not given)	0	4.8	4	2.3	47	12.6	0	65
O=C(Cn1ccnc1[N+](=O)[O-])NCc1ccccc1 [BENZNIDAZOLE]	63.3	98.5	–	–	–	–	–	–
